Laboratory results reported in patent US6555330B1, “Oncogene-induced apoptosis in drug-resistant cells” (Cold Spring Harbor Laboratory, priority 1996, dated 2003).

Assays:
[1] = test system: Interleukin-1β-converting enzyme-like proteases (ILPs); test: Fluorescent substrate (DEVD-AFC) assay for ILP activity in 293 cell extracts; assay type: biochemical, human; conditions: for rate of ILP activation (dose response, free AFC generated per minute per milligram of extract): dialyzed S-100 extracts of 293 cells, various concentrations; for rate of ILP activation (dose response, free AFC generated per minute per milligram of extract) / free AFC (cleaved DEVD-AFC) generated in one minute by one milligram of extract: 60 minutes at 37° C.; for free AFC (cleaved DEVD-AFC) generated in one minute by one milligram of extract: 293 cell extracts, vanadate 5 mM, Granzyme B 2 U/ul added before shift
Experimental: Interleukin-1β-converting enzyme-like proteases activity was measured by monitoring the cleavage of DEVD-AFC. This fluorogenic substrate DEVD-AFC consists of the peptide sequence (DEVD) which resembles the cleavage site in proteins that are degraded by ILPs, conjugated to amino-trifluoromethyl coumarin (AFC). When the peptide and the AFC molecule are attached the substrate is not fluorescent, when it is free it is fluorescent. […] The activated ILPs cleave the bond between the peptide and the AFC, resulting in increased fluorescence, which is detected using a fluorimeter. The assay is performed in a microtiter plate using the format essentially as described by Thomberry, N. A., Methods in Enzymology, 244:615-631 (1994). […] This period of time ranges from 0 to 90 minutes. During the preincubation period of a modulation assay, compounds that are to be assessed for their ability to activate or inhibit apoptosis are also introduced into the sample. Depending upon the purpose of the experiment the test compound may be present for the entire period of the preincubation or only a portion of the time. In order to measure the level of ILP activation 1 μl of extract is added to 200 μl of assay buffer (50 mM PIPES/KOH pH 7.0, 0.1 mM EDTA, 1 mM DTT, 10% glycerol) containing 20 μM DEVD-AFC (Enzyme Systems products). The release of free AFC was measured with a fluorescence plate reader, Cytofluor (Perspective Biosystems). The amount of fluorescence resulting from samples assayed in the presence and absence of potential modulatory compounds is compared to appropriate control samples and expressed as the number of free AFC molecules generated in one minutes by one milligram of cell extract.
Identifying agents that modulate the apoptotic machinery of 293 cellular extracts Dialyzed S-100 extracts of 293 cells were incubated for 60 minutes at 37° C. with various concentrations of either ATP, EDTA or sodium ortho-vanadate. ILP activity was then measured using the fluorogenic substrate assay. (FIGS. 8A-C).
To determine whether bcl-2 blocks ILP activation or inhibits the enzymatic activity of ILPs, bcl-2 was added to extracts either before or after incubation at 37° C. and monitored ILP activity by a quantitative enzymatic assay. Bc1-2 (40 μg/ml) was added to 293 extract either before incubation at 37° C. or after 15 minutes of the incubation (additions indicated by arrows). ILP activity against DEVD-AFC was measured as described above (FIG. 3).
As described below, the system described above can be used to screen for compounds that effect ILP activation. […] Vanadate (0.1, l and 5 mM) was added to extracts from 293 cells and the extracts then shifted to 37° C. and incubated for 30 minutes. The rate of DEVD-AFC proteolysis was then determined.
Vanadate (5 mM) was added to extracts either before 60 minutes incubation at 37° C. or after 60 minutes incubation. The extracts were then incubated for a further 60 minutes and the rate of DEVD-AFC proteolysis determined.
Extracts from 293 cells were incubated for 60 minutes at 37° C. Where indicated vanadate (5 mM), Granzyme B (2 U/ul ) or DEVD-CMK (10 μM) was added before the extract was shifted to 37° C. After 60 minutes the rate of DEVD-AFC proteolysis was determined. Data is representative of two experiments. In parallel, nuclei (1×10^7/ml) were incubated at 37° C. for 60 minutes with extracts treated with vanadate (5 mM), Granzyme B (2 U/ul) or DEVD-CMK (10 μM) where indicated. Nuclei were also incubated at 4° C. with extract or at 37° C. with Granzyme B but no extract.
Extracts were incubated at 37° C. and vanadate was added at the indicated times (arrows) to a final concentration of 5 mM. The rate of DEVD-AFC proteolysis in untreated extract (closed symbols) or vanadate treated extracts (open symbols) was measured at the indicated times. Data is representative of three experiments.

Jurkat cells = test: Apoptotic nuclear morphology (DAPI) in intact Jurkat cells; assay type: cell-based; conditions: etoposide 50 μM
Experimental: (§1) Intact cells or isolated nuclei were fixed with 4% paraformaldehyde, stained with DAPI (1μg/ml) and examined by fluorescence microscopy. The percentage of cells showing apoptotic nuclear morphology was determined. Images were acquired using a Photometrics PXL CCD camera (Photometrics Ltd) controlled by Oncor Image software (Oncor Inc.). Figures were prepared using Adobe Photoshop software. Jurkat cells (1×10^5/ml) (FIG. 1A) or 293 cells (1×10^5/ml) (FIG. 1B) were incubated with or without etoposide (50 μM). Cells were fixed at the indicated times and stained with DAPI. The percentage of cells with apoptotic nuclear morphology was determined. Samples were also taken to assess ILP activation.

293 cells = test: Apoptotic nuclear morphology (DAPI) in intact 293 cells; assay type: cell-based, human; conditions: etoposide 50 μM
Experimental: as §1

[2] = test system: ICE-like proteases (ILPs) in Jurkat cells; test: Affinity labeling of active ILPs in Jurkat cells; assay type: cell-based; conditions: Jurkat cells treated with etoposide
Experimental: (§2) Cells (2×10^6) were centrifuged (200 g, 5 minutes) and resuspended in […] MDB containing 10 μM biotinylated YVAD.AMK (plus protease inhibitors and […] cytochalasin B) and lysed by freeze/thawing for three cycles. The lysate was centrifuged (16,000 g, 20 minutes, 4° C.) and the supernatant incubated at 37° C. for 4 minutes to label active ILPs. The protein concentration was determined (Bradford assay), an equal volume of 2×SDS sample buffer added and the sample boiled for 5 minutes.
(§3) Extracts were mixed with an equal volume of MDB containing 20 μM biotinylated YVAD.AMK and incubated at 37° C. for 4 minutes to label active ILPs. Labeling was stopped by adding an equal volume of 2×SDS sample buffer and samples were subjected to 15% SDS-PAGE. Proteins were transferred to a PVDF Immobilon P^SQ membrane (Millipore Corp.) and the membrane washed (methanol, 5 minutes) and dried (80° C., 15 minutes). The blot was incubated with avidin (1 μg/ml) followed by Biotin-horse radish peroxidase (0.05 μg/ml), and labeled proteins detected by ECL (Amersham Inc.).
(§4) To avoid relying solely on the morphological manifestations of apoptosis, whether activation of ILPs, a biochemical hallmark of apoptosis, occurred in 293 cells treated with etoposide was also determined. Jurkat cells (2×10^6) or 293 cells (2×10^6) were incubated with biotin-YVAD-AMK, an affinity probe that labels active ILPs.

[3] = test system: ICE-like proteases (ILPs) in 293 cells; test: Affinity labeling of active ILPs in 293 cells; assay type: cell-based, human; conditions: 293 cells treated with etoposide
Experimental: as §2, §3, §4

[4] = test system: apoptotic machinery of 293 cell extracts; test: In vitro apoptosis of isolated HeLa nuclei in 293 cell extracts; set-up: species or system human
Experimental: Extracts were prepared essentially as described (Lazebnik, Y. A., et al., J. Cell. Biol., 123:7-22 (1993)). 293 cells (5-7×10^5 cells/ml)were washed and gently resuspended in 10× pellet volumes of extract preparation buffer (50 mM PIPES pH 7.0, 50 mM KCl, 5 mM EGTA, 2mM MgCl2, 1 mM DTT) plus 0.1 mM PMSF, 10 μg/ml cytochalasin B and 2 μg/ml each of chymostatin, pepstatin, leupeptin and antipain. Cells were immediately centrifuged (200 g, 5 minutes) and lysed by three cycles of freeze/thawing with liquid nitrogen. The lysate was centrifuged at 100,000 g for two hours, giving a cell extract. […]
Intact cells or isolated nuclei were fixed with 4% paraformaldehyde, stained with DAPI (1μg/ml) and examined by fluorescence microscopy. The percentage of cells showing apoptotic nuclear morphology was determined. […]
293 cell extracts (10 μl) were incubated with isolated HeLa nuclei (1×10^5) for 60 minutes at 37° C. either alone or with biotin-YVAD-AMK (100 μM), an inhibitor of ILPs. After incubation aliquots of the reaction were fixed, stained with DAPI and examined by fluorescence microscopy.
Extracts from E1A/E1B transformed MEFs or 293 cells (10 μl) were incubated with bcl-2 (40 μg/ml) for 10 minutes at 37° C. prior to further incubation with HeLa nuclei (1×10^5) for 60 minutes. Nuclei were fixed, stained with DAPI and examined by fluorescence microscopy. […]

[5] = test system: ICE-like proteases (ILPs), cpp32; test: Affinity labeling of ILPs and cpp32 immunoblotting in 293 cell extracts; assay type: biochemical, human; conditions: Granzyme B added to 293 extracts treated with vanadate
Experimental: as §3
Affinity blots were re-probed to detect cpp32. These membranes were soaked in methanol for 5 minutes to inactivate horseradish peroxidase, dried and re-probed with a monoclonal antibody to cpp32 (Transduction Laboratories) followed by incubation with a secondary antibody conjugated to horseradish peroxidase. The antigen-antibody complex was detected by ECL (Amersham Inc).
Prevention of apoptosis was achieved only if extracts were pre-incubated with bcl-2 before addition of nuclei. […] The same extracts were incubated alone, with buffer or with bcl-2 (40 μg/ml) for 70 minutes at 37° C. and active ILPs labeled with biotin YVAD.AMK (10 μM). Samples were subjected to 15% SDS-PAGE, transferred to a PVDF membrane and labeled ILPs visualized by ECL.

Nc1ncnc2c1ncn2[C@@H]1O[C@H](COP(=O)(O)OP(=O)(O)OP(=O)(O)O)[C@@H](O)[C@H]1O [ATP]
rate of ILP activation (dose response, free AFC generated per minute per milligram of extract) [1]: increases the rate of ILP activation

O=C(O)CN(CCN(CC(=O)O)CC(=O)O)CC(=O)O [EDTA]
rate of ILP activation (dose response, free AFC generated per minute per milligram of extract) [1]: decreases the rate of ILP activation

COc1cc([C@@H]2c3cc4c(cc3[C@@H](O[C@@H]3O[C@@H]5CO[C@@H](C)O[C@H]5[C@H](O)[C@H]3O)[C@H]3COC(=O)[C@H]23)OCO4)cc(OC)c1O [etoposide]
induction of apoptotic morphology (Jurkat cells): sufficient to kill Jurkat cells
induction of apoptotic morphology (293 cells): no morphological signs of apoptosis
active ILPs detected by biotin-YVAD-AMK affinity labeling [2]: multiple active ILPs were detected
active ILPs detected by biotin-YVAD-AMK affinity labeling [3]: No active ILPs were detected

[Na+].[Na+].[Na+].[O]=[V]([O-])([O-])[O-] [vanadate, sodium ortho vanadate]
free AFC (cleaved DEVD-AFC) generated in one minute by one milligram of extract [1]: 1.4 pmol/min
rate of ILP activation (dose response, free AFC generated per minute per milligram of extract) [1]: decreases the rate of ILP activation
ILP activity (rate of DEVD-AFC proteolysis) ([1]; vanadate 5 mM added after 60 minutes incubation at 37° C. (ILPs already active), further 60 minutes): had no effect on ILP activity
process of ILP activation (rate of DEVD-AFC proteolysis) ([1]; vanadate 5 mM added at different times after shift of 293 extract to 37° C.): arrested the process of ILP activation irrespective of when it was added
inhibition of ILP activation ([1]; vanadate 5 mM added before shift to 37° C., all extracts): complete inhibition
rate of DEVD-AFC proteolysis ([1]; vanadate 0.1, 1 and 5 mM added before shifting 293 extract to 37° C., 30 minutes): inhibited cleavage of DEVD-AFC

Granzyme B: a serine protease which activates ILPs directly
effect on vanadate inhibition of in vitro apoptosis (nuclei) ([4]; Granzyme B 2 U/ul added to 293 extracts treated with vanadate 5 mM, nuclei 60 minutes at 37° C.): completely overcame vanadate inhibition
free AFC (cleaved DEVD-AFC) generated in one minute by one milligram of extract [1]: 0 pmol/min
effect on vanadate inhibition of ILP activity ([1]; Granzyme B 2 U/ul added to 293 extracts treated with vanadate 5 mM): completely overcame vanadate inhibition
ILP activation and cpp32 processing (affinity labeling, immuno-blotting) [5]: resulted in ILP activation and cpp32 processing

biotin-YVAD-acyloxymethylketone [biotin YVAD-amk]
nuclear morphological changes of apoptosis in HeLa nuclei ([4]; 293 cell extract, inhibitor 100 μM, 60 minutes at 37° C.): prevented the nuclear morphological changes of apoptosis
